Test [1] deals with T1, 5-HT3A receptor L126C mutant (Homo sapiens, UniProt P46098, L121C).
T1 construct: expressed in transfected cells; host or cells: HEK293, transient, pcDNA3.1
T1 sequence (P46098 24-478 L121C): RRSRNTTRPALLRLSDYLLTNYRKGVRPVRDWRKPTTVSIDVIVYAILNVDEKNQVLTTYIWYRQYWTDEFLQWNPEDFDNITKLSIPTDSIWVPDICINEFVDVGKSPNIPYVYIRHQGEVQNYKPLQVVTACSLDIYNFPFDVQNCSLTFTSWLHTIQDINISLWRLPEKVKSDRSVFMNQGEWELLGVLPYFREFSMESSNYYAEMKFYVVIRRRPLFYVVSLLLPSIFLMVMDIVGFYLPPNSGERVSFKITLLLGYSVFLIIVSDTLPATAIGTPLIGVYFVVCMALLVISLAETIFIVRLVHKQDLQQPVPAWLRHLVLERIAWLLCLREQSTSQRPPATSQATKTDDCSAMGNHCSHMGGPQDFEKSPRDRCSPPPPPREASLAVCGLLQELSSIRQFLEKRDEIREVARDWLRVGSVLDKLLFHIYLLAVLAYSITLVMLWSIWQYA
Put plainly: Saturation radioligand binding, 5-HT3A L126C mutant. The conditions noted are these: L126C versus wild type. The protocol:
(§1) Mutagenesis was performed using the QuikChange method (Agilent Technologies Inc., California, USA). Cysteine residues were substituted for amino acids throughout each of the binding loops A - E (Fig. 1). To facilitate comparisons with previous work, we have used the numbering of the equivalent residues in the mouse 5-HT3A subunit (Q6J1J7).
(§2) Human 5-HT3A subunit cDNA (Accession: P46098, kindly provided by J. Peters, Dundee University, UK) was cloned into pcDNA3.1 for expression in HEK293 cells. […] Cells were transiently transfected with either of these cDNA constructs using polyethyleneimine (PEI: 25 kDa, linear, powder, Polysciences Inc., Eppelheim, Germany). 30 μl of PEI (1 mg ml^−1), 5 μg cDNA and 1 ml DMEM were incubated for 10 min at room temperature, added drop wise to a 90 mm plate of 70–80% conﬂuent HEK293 cells, and incubated for 2–3 days before use.
(§3) Transfected HEK 293 cells were scraped into 0.6 ml of ice-cold 10 mM HEPES buffer (pH 7.4) and frozen. […] Radioactivity was measured by scintillation in Ultima Gold XR (Perkin Elmer, Waltham, MA) using a Tri-Carb 2100 TR (PerkinElmer) scintillation counter. Final counts were monitored to ensure that binding never exceeded 10% of the added concentrations of radioligands.
(§4) All data were analysed using GraphPad Prism v5. […]

Test [2] concerns the target α7 nACh receptor. The conditions noted are these: low potency agonist, cited from earlier work.
Test [3] has as its target α7 nACh receptor (UniProt P22770+P23979, M226I/T225I). The conditions noted are these: α7 nACh receptors. On the procedure:
as §2
Transfected HEK 293 cells were scraped into 0.6 ml of ice-cold 10 mM HEPES buffer (pH 7.4) and frozen. After thawing, they were washed with HEPES buffer, homogenised by trituration through a 25 gauge (0.5 mm) needle, and 50 μg of cell suspension incubated in 0.5 ml HEPES buffer containing different concentrations of radioligand. […] Equilibrium reactions were incubated on ice for at least 1 h and terminated by vacuum filtration onto Whatman GF/B filters wetted with 0.3% polyethyleneimine, followed by two rapid washes with 2.5 ml ice cold buffer. Radioactivity was measured by scintillation in Ultima Gold XR (Perkin Elmer, Waltham, MA) using a Tri-Carb 2100 TR (PerkinElmer) scintillation counter. Final counts were monitored to ensure that binding never exceeded 10% of the added concentrations of radioligands.
All data were analysed using GraphPad Prism v5. Individual saturation binding experiments were fitted to the equation below and the fitted values averaged to yield mean ± sem of n independent experiments: y=[…] where Bmax is maximum binding at equilibrium, Kd is the equilibrium dissociation constant and [L] is the free concentration of radioligand. Affinities were compared using 1-way ANOVA and a Dunnett's Post-Test.

The target of test [4] is T2, 5-HT3A receptor R92C mutant (Homo sapiens, UniProt P46098, R87C).
T2 construct: expressed in transfected cells; host or cells: HEK293, transient, pcDNA3.1
T2 sequence (P46098 24-478 R87C): T1 sequence (P46098 24-478 L121C) with R64C, C98L
Kind of test: Saturation radioligand binding, 5-HT3A R92C mutant. The conditions noted are these: R92C versus wild type. On the procedure: as §1, §2, §3, §4

For test [5], the target named is AChBP. Conditions: AChBP used for co-crystallisation; ref Hibbs et al., 2009; read-out: affinity; cited from earlier work.
Test [6] concerns the target α7 nACh receptor. Conditions: α7 nACh receptors; ref Macor et al. (2001); cited from earlier work.
The target in test [7] is T3, 5-HT3A receptor I71C mutant (Homo sapiens, UniProt P46098, I66C).
T3 construct: expressed in transfected cells; host or cells: HEK293, transient, pcDNA3.1
T3 sequence (P46098 24-478 I66C): T1 sequence (P46098 24-478 L121C) with I43C, C98L
Put plainly: Saturation radioligand binding, 5-HT3A I71C mutant. The conditions noted are these: I71C versus wild type. On the procedure:
as §1, §2, §3, §4

Residue numbers refer to the chain shown, from its start. Like-named read-outs stand apart in the source and are kept apart here.

Chain of α7 nACh receptor (UniProt P22770+P23979, M226I/T225I) (P22770+P23979 fused P22770:T225I/P22770:M226I): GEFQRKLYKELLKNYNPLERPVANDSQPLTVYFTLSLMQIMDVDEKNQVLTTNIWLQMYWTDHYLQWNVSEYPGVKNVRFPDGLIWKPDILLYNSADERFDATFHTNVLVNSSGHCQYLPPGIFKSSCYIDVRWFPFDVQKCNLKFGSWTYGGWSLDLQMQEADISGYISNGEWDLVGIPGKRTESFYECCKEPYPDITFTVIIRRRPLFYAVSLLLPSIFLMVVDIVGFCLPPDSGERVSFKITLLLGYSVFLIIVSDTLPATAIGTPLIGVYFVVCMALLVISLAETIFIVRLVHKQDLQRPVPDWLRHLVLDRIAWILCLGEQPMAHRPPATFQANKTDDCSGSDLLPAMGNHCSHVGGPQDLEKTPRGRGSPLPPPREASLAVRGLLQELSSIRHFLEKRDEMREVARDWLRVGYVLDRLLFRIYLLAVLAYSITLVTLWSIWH

As for `CN1[C@@H]2CC[C@H]1C[C@@H](OC(=O)c1c[nH]c3ccccc13)C2` [tropisetron, Tropisetron], the change in affinity came out at 2.5 fold in test [1] and 1.9 fold in test [7]. Also, the EC50 is 1300 nM in test [2] (ref Macor et al., 2001) and 600 nM in test [2] (ref Papke et al., 2005). The saturation binding entry in test [3] is recorded as “undetectable”. The compound also registered a reduction in affinity in test [4] of 2.5 fold. Moreover, in test [5], the Kd was 500 nM. Further, the inhibition constant (Ki) in test [6] is 6.9 nM.

Values taken from publication PMC5464333, “The binding orientations of structurally-related ligands can differ; A cautionary note” (Neuropharmacology, 2017).
